Calls of active or inactive are those of the source. No rule for the calls is given here.
Test system: S. cerevisiae GAL1 promoter reporter activation counterscreen
Experiment: yeast Gal1p promoter activation – S. cerevisiae, artefact control for yeast lifespan extension project (AID 816);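 also: yeast growth read after 24 h of incubation with compounds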

SMILES | EC50
CCOc1ccc(NCc2nc3ccccc3n2CCOc2ccccc2)cc1 | > 40 µM (inactive)
CC(=O)c1c(C)[nH]c(C(=O)OC2CCCCC2=O)c1C (stereo not given) | > 40 µM (inactive)
COc1cccc(/C=C/C(=O)c2c(O)cc(C)oc2=O)c1O | > 40 µM (inactive)
CN(C)C=C1C(=O)N(C2CCCCC2)C(=O)N(C2CCCCC2)C1=O | > 40 µM (inactive)
O=c1cc(O)c2c(=O)n(-c3ccccc3)c3c(c2o1)CCCCC3 | > 40 µM (inactive)
O=c1c2ccccc2nc(-c2cccc(Cl)c2)n1O | > 40 µM (inactive)
Cc1ccnc(SCc2cc(=O)c(OC(=O)c3ccco3)co2)n1 | > 40 µM (inactive)
CCN1CCCC1CNC(=O)COc1cc(=O)n(C)c2ccccc12 (stereo not given) | > 40 µM (inactive)
CC(C)C(OC(=O)CN1C(=O)COc2ccccc21)C(=O)NC1CCCC1 (stereo not given) | > 40 µM (inactive)
Cc1ccc(N(C)C(=O)Oc2ccc(C(=O)c3ccc(Cl)cc3)cc2)cc1 | > 40 µM (inactive)
O=C(N/N=C/c1cccc(F)c1)c1c(O)c2ccccc2[nH]c1=O | > 40 µM (inactive)
O=C(Nc1scc(-c2ccc(F)cc2)c1C(=O)O)c1ccco1 | > 40 µM (inactive)
O=C(CCC1CCCC1)c1c(O)c2ccccc2oc1=O | > 40 µM (inactive)
O=C(CS(=O)c1ccc(C(F)(F)F)cc1[N+](=O)[O-])Oc1ccccc1 (stereo not given) | > 40 µM (inactive)
O=C1c2ccccc2C(=O)N1OCc1ccccc1 | > 40 µM (inactive)
COc1cc(/C=C/C(=O)C2C(=O)C=C(C)OC2=O)cc(OC)c1O (stereo not given) | > 40 µM (inactive)
COc1cc(/C=c2\sc3nc(-c4ccncc4)nn3c2=O)ccc1OC(C)=O | > 40 µM (inactive)
Cc1ccc(/C=C2/C(=O)NC(=O)N(CCc3ccc(F)cc3)C2=O)o1 | > 40 µM (inactive)
O=C(NCc1ccco1)c1cc(C(=O)C2CCCCC2)c[nH]1 | > 40 µM (inactive)
C=C(C)CN(CC)C(=O)COc1ccc(S(=O)(=O)Nc2ccc(OC)cc2)cc1 | > 40 µM (inactive)
CS(=O)(=O)c1nc(-c2ccccc2)cc(C(F)(F)F)n1 | > 40 µM (inactive)
Oc1ccc(Br)cc1C=Nc1ccc2[nH]ncc2c1 | > 40 µM (inactive)
COC(=O)CSc1ncccc1-c1nc2ccccc2[nH]1 | > 40 µM (inactive)
CCOc1cc(/C=C\[N+](=O)[O-])ccc1OCC(=O)Nc1ccccc1C | > 40 µM (inactive)
C=C1C(=O)C=C2CN(C(=O)c3ccccc3)[C@@](Cc3ccc(F)cc3)(C(=O)OC)[C@@H]12 | > 40 µM (inactive)

SMILES | EC50
Cc1ccc(C(=O)c2no[n+]([O-])c2C(=O)c2ccc(C)cc2)cc1 | > 40 µM (inactive)
CCN(CC)Cc1c(O)c(Cl)cc2c(C)c(C)c(=O)oc12 | > 40 µM (inactive)
Cc1cccc(N2C(=O)C(Oc3ccc(Cl)cc3Cl)C2C=O)c1C (stereo not given) | > 40 µM (inactive)
CN1C(=O)/C(=C/c2cccn2-c2ccc3ccccc3c2)C(=O)NC1=S | > 40 µM (inactive)
O=C1OC2(CCCCC2)OC(=O)C1=CNc1nc2ccccc2s1 | > 40 µM (inactive)
CCOC(=O)c1ccc2c(c1)n(CCO)c(C)[n+]2CC | > 40 µM (inactive)
O=C(/C=C/c1ccccc1)C1C(=O)c2ccccc2C1=O | > 40 µM (inactive)
COc1ccc(-c2noc(CSc3nnc(-c4ccncc4)n3-c3ccc(F)cc3)n2)cc1OC | > 40 µM (inactive)
Cc1cc(NS(=O)(=O)c2ccc(CC(C)C)cc2)no1 | > 40 µM (inactive)
COc1ccc2c(=O)c3c(=O)n(Cc4ccco4)c(-c4ccco4)nc3oc2c1 | > 40 µM (inactive)
CSc1ccc(S(=O)(=O)NCc2ccc(Cl)cc2Cl)cc1 | > 40 µM (inactive)
Cc1cc(C)nc(SCc2cc(=O)c(OC(=O)c3ccco3)co2)n1 | > 40 µM (inactive)
Cc1[nH]nc2nc3c(c(OC(=O)c4ccccc4)c12)c(=O)n(C)c(=O)n3C | > 40 µM (inactive)
CCCCCn1c(=O)c(C(=O)NCc2ccccn2)c(O)c2ccccc21 | > 40 µM (inactive)
CC(C)C(C(=O)O)N1C(=O)/C(=C/c2cccn2C)SC1=S (stereo not given) | > 40 µM (inactive)
COc1cc(/C=C/C(=O)c2c(O)cc(C)oc2=O)cc(OC)c1O | > 40 µM (inactive)
CCCN1C(=O)/C(=C/c2ccncc2)SC1=S | > 40 µM (inactive)
CCn1cc(C(=O)O)c(=O)c2ccc(C)nc21 | > 40 µM (inactive)
N#CSCC(=O)N1c2ccccc2CCc2ccccc21 | > 40 µM (inactive)
CCCC(=Nc1ccccc1)C1=C(O)C(C(=O)OC)C(C)(C)CC1=O (stereo not given) | > 40 µM (inactive)
O=C1CC(c2ccccc2)CC(O)=C1C=NCCN1CCN(C(=O)Nc2ccccc2)CC1 (stereo not given) | > 40 µM (inactive)
O=C(/C(=C/c1ccccc1)n1cncn1)c1ccc(Cl)cc1Cl | > 40 µM (inactive)
CCc1oc2ccccc2c1C(=O)CCN1CCCCC1 | > 40 µM (inactive)
CCCc1cc(=O)oc2cc(C)c(CN3CCCC3)c(O)c12 | > 40 µM (inactive)
COc1cc(Br)cc(-c2nc3c(c(=O)[nH]c(=O)n3Cc3ccccc3)n2C)c1O | > 40 µM (inactive)

SMILES | EC50
CCCC(=O)C1C(=O)CC(CC(C)SCC)CC1=O (stereo not given) | > 40 µM (inactive)
O=CN(/C=C1\Sc2ccccc2C1=O)Cc1ccccc1 | > 40 µM (inactive)
Cc1c(NC(=O)C(=O)/C=C(\O)c2ccc(Cl)cc2)c(=O)n(-c2ccccc2)n1C | > 40 µM (inactive)
O=c1c2ccccc2nc(-c2ccc(Cl)c(Cl)c2)n1O | > 40 µM (inactive)
Cc1ccc2nc(N3C(=O)C(O)=C(C(=O)c4ccco4)C3c3cccs3)sc2c1 (stereo not given) | > 40 µM (inactive)
c1ccc(-c2c(-c3ccccc3)n(Cc3ccco3)c3ncnc(NCCCn4ccnc4)c23)cc1 | > 40 µM (inactive)
CCOC(=O)C1Cc2cc3c(cc2C1=O)CC(C(=O)OCC)C3=O (stereo not given) | > 40 µM (inactive)
CCOC(=O)CN1C(=O)N[C@H](c2ccc(Br)cc2)C(C(C)=O)=C1C | > 40 µM (inactive)
Cc1ccc(NC(=O)CN2CCN(CCN=CC3=C(O)CC(c4ccccc4)CC3=O)CC2)cc1 (stereo not given) | > 40 µM (inactive)
Nn1c(-c2ccccn2)nnc1-c1ccccn1 | > 40 µM (inactive)
O=C1/C(=C\c2cccnc2)CN(Cc2ccccc2)C/C1=C\c1cccnc1 | > 40 µM (inactive)
CC(C)c1ccc(C2=C(O)c3ccccc3C(=O)C2=O)cc1 | > 40 µM (inactive)
C=C(CC)C(=O)c1ccc(OCC(=O)O)c(Cl)c1Cl | > 40 µM (inactive)
O=C1CC(c2ccc(F)cc2)CC(O)=C1C=NCCN1CCN(C(=O)Nc2ccccc2)CC1 (stereo not given) | > 40 µM (inactive)
COC(=O)c1sc2ncn(-n3c(C)ccc3C)c(=O)c2c1C | > 40 µM (inactive)
CC(C)(C)C(=O)Cn1c(=N)n(Cc2ccccc2)c2ccccc21 | > 40 µM (inactive)
O=c1[nH]c2ccccc2nc1Cc1ccccc1 | > 40 µM (inactive)
Cc1ccc2[nH]c(=O)c(CN(CCO)Cc3nnnn3CCc3ccccc3)cc2c1 | > 40 µM (inactive)
O=c1cc(O)c2c(=O)n(-c3ccccc3)c3c(c2o1)CCCCCC3 | > 40 µM (inactive)
C=CCN(CC=C)c1nc2ccccc2nc1C(C#N)C(=O)OC(C)C (stereo not given) | > 40 µM (inactive)
O=C(Nc1cccc(Cl)c1)c1ccc2c(=O)n3c(nc2c1)CCCCC3 | > 40 µM (inactive)
COn1c(SC2CCCCC2)nc2ccccc2c1=O | > 40 µM (inactive)
COCCCNc1c2c3c(cccc3[nH]c1=O)C(=O)c1ccccc1-2 | > 40 µM (inactive)
CN1CCN(C(=S)Nc2cc([N+](=O)[O-])ccc2Cl)CC1 | > 40 µM (inactive)
O=C1c2ccccc2C(Nc2ccc3c(c2)OCCO3)N1c1ccccn1 (stereo not given) | > 40 µM (inactive)

SMILES | EC50
Oc1ccc2ccccc2c1C=Nc1ccc(N2CCOCC2)cc1 | > 40 µM (inactive)
CCC(C)OC(=O)C1C(c2ccccc2)C(C(=O)O)C1c1ccccc1 (stereo not given) | > 40 µM (inactive)
O=C(CCN1CCCCCC1)Nc1ccc(F)cc1 | > 40 µM (inactive)
Cc1c(O)c(S(=O)c2ccccc2)c(=O)n(-c2ccccc2)c1-c1ccccc1 (stereo not given) | > 40 µM (inactive)
C/C(=N\NC(=O)c1cccnc1)c1c(O)cc(C)oc1=O | > 40 µM (inactive)
CCCC(=O)Nc1ccc(C(=O)NNC(=S)NC(=O)c2cccs2)cc1 | > 40 µM (inactive)
CNC(=S)NC1CC2CCCC(C1)N2Cc1ccco1 (stereo not given) | > 40 µM (inactive)
CN(C)CC(C(=O)c1ccccc1)c1ccccc1 (stereo not given) | > 40 µM (inactive)
CCn1c(/C=N/c2nc3ccccc3n2C)nc2ccccc21 | > 40 µM (inactive)
O=C(/C=C(\O)c1ccc(Cl)cc1)C(=O)NNC(=O)C(O)(c1ccccc1)c1ccccc1 | > 40 µM (inactive)
CS(=O)(=O)c1nc(-c2ccco2)cc(C(F)(F)F)n1 | > 40 µM (inactive)
CCCC[n+]1c(-c2ccc(Cl)cc2Cl)csc1Nc1ccccc1 | > 40 µM (inactive)
COc1ccc(N(C)C(=S)Nc2ccc3nc(C)c(C)nc3c2)cc1 | > 40 µM (inactive)
O=S1(=O)C=C(Sc2nc3ccccc3s2)c2ccccc21 | > 40 µM (inactive)
O=C1/C(=N/n2cnnc2)c2ccccc2N1Cc1ccccc1 | > 40 µM (inactive)
COc1ccc(C(=O)Nc2ccc(OCc3ccccc3)cc2)cc1[N+](=O)[O-] | > 40 µM (inactive)
CCOC(=O)/C(=C\c1cn(C)c2ccccc12)[N+](=O)[O-] | > 40 µM (inactive)
CCSc1nnc(NC(=O)C2(C)Cc3ccccc3C(=O)O2)s1 (stereo not given) | > 40 µM (inactive)
C/C=C/Cn1c(N2CCCCCC2)nc2c1c(=O)[nH]c(=O)n2C | > 40 µM (inactive)
COc1ccc(CNC(=O)c2c(O)c3cccc4c3n(c2=O)CCC4)cc1 | > 40 µM (inactive)
O=C1c2ccccc2NC(c2cnc3ccccc3n2)N1O (stereo not given) | > 40 µM (inactive)
COC(=O)C1=C(N)OC2=C(C(=O)CC(C)(C)C2)C1c1cccs1 (stereo not given) | > 40 µM (inactive)
CC1CC(C)CN(S(=O)(=O)c2cccc(C(=O)N3C(=O)c4cccc(N)c4C3=O)c2)C1 (stereo not given) | > 40 µM (inactive)
CC(=O)[C@H]1[C@H](c2cccc(Cl)c2)C(C#N)(C#N)[C@@H]2c3ccccc3C=CN21 | > 40 µM (inactive)
Oc1ccc2ccccc2c1/C=N/c1nccs1 | > 40 µM (inactive)

Reference: PubChem BioAssay AID816 (SRMLSC, 2007)
